Drawing on patent US20090124672A1 (priority 2007, published 2009), this text covers IC50 and inhibition for 33 molecules.

As a reminder, the IC50 is the concentration needed to halve the response being measured. The term inhibition denotes the relative decrease from the control value, in per cent.

The first assay concerns the target T1, hALDH2 (recombinant human mitochondria ALDH) (Homo sapiens, UniProt P05091).
T1 sequence (P05091 18-517): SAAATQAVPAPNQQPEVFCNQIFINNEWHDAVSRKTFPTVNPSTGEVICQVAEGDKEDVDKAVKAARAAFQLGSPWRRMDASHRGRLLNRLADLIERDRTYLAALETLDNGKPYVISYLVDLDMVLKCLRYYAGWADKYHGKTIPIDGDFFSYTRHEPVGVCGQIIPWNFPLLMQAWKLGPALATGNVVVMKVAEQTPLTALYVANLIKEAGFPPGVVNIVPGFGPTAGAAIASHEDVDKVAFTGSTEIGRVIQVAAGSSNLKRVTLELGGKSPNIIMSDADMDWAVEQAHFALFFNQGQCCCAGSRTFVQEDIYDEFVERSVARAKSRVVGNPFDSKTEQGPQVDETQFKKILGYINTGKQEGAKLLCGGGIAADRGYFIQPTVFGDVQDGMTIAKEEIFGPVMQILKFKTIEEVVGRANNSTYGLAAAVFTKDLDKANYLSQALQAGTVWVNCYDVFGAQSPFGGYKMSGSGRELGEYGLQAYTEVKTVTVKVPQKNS
Kind of assay: ALDH2 inhibition assay (NADH formation, formaldehyde substrate). The class given is biochemical.
Conditions: not given
The procedure: ALDH2 inhibition assays were performed in sodium phosphate buffer (50 mM, pH 7.4) containing 1.2 mM NAD^+ (Sigma N7004), 1 nM hALDH2 (recombinant human mitochondria ALDH), various concentrations of test compounds (from 0.03 nM to 1000 nM), and 0.15 mM freshly prepared formaldehyde solution (Ladd Research 20295). Reactions were initiated by the addition of formaldehyde and rates were recorded by monitoring NADH formation in a temperature controlled (25° C.) FluoroMax-2 Fluorimeter with excitation and emission wavelengths set at 340 and 460 nm, respectively. […] Normally, IC50 values were determined by fitting concentration-inhibition data to sigmoidal dose-response curves with two-floating parameters: IC50 and Hill coefficient. When tight binding situation was suspected, apparent Ki values were estimated by fitting dose-response data to Morrison's equation [Methods in Enzymology 63, 437-467, 1979].
For the molecule `COc1ccc(-c2nc(COc3ccc4c(=O)c(-c5ccc(O)cc5)coc4c3)no2)cc1C(F)(F)F`, the IC50 was determined as 0.02 µM. Same read-out and setting: the same measure for “3-(4-hydroxyphenyl)-7-[(6-pyrazolyl(3-pyridyl))methoxy]chromen-4-one [PT-52]”: 0.01 µM.

For the molecule “7-{2-[4-(3-chlorophenyl)piperazinyl]ethoxy}-3-(4-hydroxyphenyl)chromen-4-one [PT-123]”, the IC50 came to 0.011 µM. Same read-out and setting: the same measure for “7-{2-[4-(4-chlorophenyl)pyrazolyl]ethoxy}-3-(4-hydroxyphenyl)chromen-4-one [PT-51]”: 0.11 µM. For “7-{3-[4-(4-chlorophenyl)pyrazolyl]propoxy}-3-(4-hydroxyphenyl)chromen-4-one [PT-106]”, the IC50 came to 0.11 µM. Same read-out and setting: as for `Cc1nc(-c2ccc(C(F)(F)F)cc2)sc1COc1ccc2c(=O)c(-c3ccc(O)cc3)coc2c1` [PT-4, 3-(4-hydroxyphenyl)-7-({4-methyl-2-[4-(trifluoromethyl)phenyl](1,3-thiazol-5-yl)}methoxy)chromen-4-one], the figure is 0.2 µM; as for `O=c1c(-c2ccc(O)cc2)coc2cc(OCc3coc(-c4cccc(C(F)(F)F)c4)n3)ccc12` [PT-12, 3-(4-hydroxyphenyl)-7-({2-[3-(trifluoromethyl)phenyl](1,3-oxazol-4-yl)}methoxy)chromen-4-one], 0.003 µM.

In the case of `O=c1c(-c2ccc(O)cc2)coc2cc(OCc3coc(-c4cc(F)cc(C(F)(F)F)c4)n3)ccc12` [PT-13, 7-({2-[5-fluoro-3-(trifluoromethyl)phenyl](1,3-oxazol-4-yl)}methoxy)-3-(4-hydroxyphenyl)chromen-4-one], the IC50 is 0.02 µM.

Consider `O=c1c(-c2ccc(O)cc2)coc2cc(OCc3coc(-c4cc(F)cc(F)c4)n3)ccc12` [PT-14, 7-{[2-(3,5-difluorophenyl)(1,3-oxazol-4-yl)]methoxy}-3-(4-hydroxyphenyl)chromen-4-one], for which the IC50 is 0.06 µM.

Take `O=c1c(-c2ccc(O)cc2)coc2cc(OCc3coc(-c4ccc(F)c(F)c4)n3)ccc12` [PT-15, 7-{[2-(3,4-difluorophenyl)(1,3-oxazol-4-yl)]methoxy}-3-(4-hydroxyphenyl)chromen-4-one]: the IC50 worked out at 0.12 µM. Still for that read-out and setting: as for `O=c1c(-c2ccc(O)cc2)coc2cc(OCc3coc(-c4ccc(F)cc4)n3)ccc12` [PT-16, 7-{[2-(4-fluorophenyl)(1,3-oxazol-4-yl)]methoxy}-3-(4-hydroxyphenyl)chromen-4-one], the figure is 0.047 µM; as for `O=c1c(-c2ccc(O)cc2)coc2cc(OCc3coc(-c4ccc(Cl)cc4)n3)ccc12` [PT-17, 7-{[2-(4-chlorophenyl)(1,3-oxazol-4-yl)]methoxy}-3-(4-hydroxyphenyl)chromen-4-one], 0.573 µM. Same read-out and setting: the same measure for `O=c1c(-c2ccc(O)cc2)coc2cc(OCc3noc(-c4ccccc4)n3)ccc12` [PT-24, 3-(4-hydroxyphenyl)-7-[(5-phenyl(1,2,4-oxadiazol-3-yl))methoxy]chromen-4-one]: 0.16 µM; for `N#Cc1cccc(COc2ccc3c(=O)c(-c4ccc(O)cc4)coc3c2)c1` [PT-25, 3-{[3-(4-hydroxyphenyl)-4-oxochromen-7-yloxy]methyl}benzenecarbonitrile]: 0.004 µM. Still for that read-out and setting: the same measure for `O=c1c(-c2ccc(O)cc2)coc2cc(OCc3cccc(C(F)(F)F)c3)ccc12` [PT-26, 3-(4-hydroxyphenyl)-7-{[3-(trifluoromethyl)phenyl]methoxy}chromen-4-one]: 0.034 µM; for `O=c1c(-c2ccc(O)cc2)coc2cc(OCc3cc(F)cc(C(F)(F)F)c3)ccc12` [PT-28, 7-{[3-fluoro-5-(trifluoromethyl)phenyl]methoxy}-3-(4-hydroxyphenyl)chromen-4-one]: 0.058 µM. Consider `O=c1c(-c2ccc(O)cc2)coc2cc(OCc3noc(-c4cc(F)cc(C(F)(F)F)c4)n3)ccc12` [PT-29, 7-({5-[3-fluoro-5-(trifluoromethyl)phenyl](1,2,4-oxadiazol-3-yl)}methoxy)-3-(4-hydroxyphenyl)chromen-4-one], for which the IC50 was determined as 0.01 µM. Still for that read-out and setting: the same measure for `O=c1c(-c2ccc(O)cc2)coc2cc(OCc3noc(-c4ccc(F)c(C(F)(F)F)c4)n3)ccc12` [PT-30, 7-({5-[4-fluoro-3-(trifluoromethyl)phenyl](1,2,4-oxadiazol-3-yl)}methoxy)-3-(4-hydroxyphenyl)chromen-4-one]: 0.1 µM; for `O=c1c(-c2ccc(O)cc2)coc2cc(OCc3noc(-c4cc(C(F)(F)F)ccc4C(F)(F)F)n3)ccc12` [PT-31, 7-({5-[2,5-bis(trifluoromethyl)phenyl](1,2,4-oxadiazol-3-yl)}methoxy)-3-(4-hydroxyphenyl)chromen-4-one]: 0.02 µM; for `C=CCOC(=O)c1cccc(-c2nc(COc3ccc4c(=O)c(-c5ccc(O)cc5)coc4c3)no2)c1` [PT-32, prop-2-enyl 3-(3-{[3-(4-hydroxyphenyl)-4-oxochromen-7-yloxy]methyl}-1,2,4-oxadiazol-5-yl)benzoate]: 1.15 µM.

Regarding `CC(C)OC(=O)c1cccc(COc2ccc3c(=O)c(-c4ccc(O)cc4)coc3c2)c1` [PT-35, methylethyl 3-{[3-(4-hydroxyphenyl)-4-oxochromen-7-yloxy]methyl}benzoate], the concentration for half-maximal inhibition (IC50) worked out at 0.02 µM. Same read-out and setting: the same measure for `O=C(O)c1ccc(COc2ccc3c(=O)c(-c4ccc(O)cc4)coc3c2)cc1` [PT-36, 4-{[3-(4-hydroxyphenyl)-4-oxochromen-7-yloxy]methyl}benzoic acid]: 0.17 µM; for `NC(=O)c1ccc(COc2ccc3c(=O)c(-c4ccc(O)cc4)coc3c2)cc1` [PT-37, 4-{[3-(4-hydroxyphenyl)-4-oxochromen-7-yloxy]methyl}benzamide]: 0.38 µM.

As for `O=c1c(-c2ccc(O)cc2)coc2cc(OCc3noc(-c4ccc(C(F)(F)F)cc4)n3)ccc12` [PT-38, 3-(4-hydroxyphenyl)-7-({5-[4-(trifluoromethyl)phenyl](1,2,4-oxadiazol-3-yl)}methoxy)chromen-4-one], the IC50 is 0.6 µM. The same measure, in the same setting: the same measure for `O=c1c(-c2ccc(O)cc2)coc2cc(OCc3noc(-c4cc(C(F)(F)F)cc(C(F)(F)F)c4)n3)ccc12` [PT-39, 7-({5-[3,5-bis(trifluoromethyl)phenyl](1,2,4-oxadiazol-3-yl)}methoxy)-3-(4-hydroxyphenyl)chromen-4-one]: 0.13 µM.

The assay is the same for the next values; noted with them: at 1 μM; read-out: hALDH2 inhibition (IC50 hALDH2 column).
For the molecule `N#Cc1ccc(-c2coc3cc(OCc4noc(-c5cc(F)cc(C(F)(F)F)c5)n4)ccc3c2=O)cc1` [PT-1, 4-[7-({5-[3-fluoro-5-(trifluoromethyl)phenyl](1,2,4-oxadiazol-3-yl)}methoxy)-4-oxochromen-3-yl]benzenecarbonitrile], the inhibition at 1 µM was 17%. Still for that read-out and setting: as for `CCOC(=O)c1cccc(-c2coc3cc(OCc4noc(-c5cc(F)cc(C(F)(F)F)c5)n4)ccc3c2=O)c1` [PT-3, ethyl 3-[7-({5-[3-fluoro-5-(trifluoromethyl)phenyl](1,2,4-oxadiazol-3-yl)}methoxy)-4-oxochromen-3-yl]benzoate], the figure is 22%; as for `Cc1ccc(S(=O)(=O)Nc2ccc(-c3coc4cc(OCc5sc(-c6ccc(C(F)(F)F)cc6)nc5C)ccc4c3=O)cc2)cc1` [PT-5, 3-(4-{[(4-methylphenyl)sulfonyl]amino}phenyl)-7-({4-methyl-2-[4-(trifluoromethyl)phenyl](1,3-thiazol-5-yl)}methoxy)chromen-4-one], 0.19%; as for `COC(=O)c1cccc(COc2ccc3c(=O)c(-c4ccc(OC)nc4)coc3c2)c1` [PT-6, methyl 3-{[3-(6-methoxy(3-pyridyl))-4-oxochromen-7-yloxy]methyl}benzoate], 16%.

For the molecule `COC(=O)c1cccc(COc2ccc3c(=O)c(-c4ccc(CO)cc4)coc3c2)c1` [PT-7, methyl 3-({3-[4-(hydroxymethyl)phenyl]-4-oxochromen-7-yloxy}methyl)benzoate], the inhibition at 1 µM stood at 75%. On the same count and under the same terms, the same measure for `CS(=O)(=O)Nc1ccc(-c2coc3cc(OCc4nc(-c5cc(F)cc(C(F)(F)F)c5)no4)ccc3c2=O)cc1` [PT-8, 7-({3-[5-fluoro-3-(trifluoromethyl)phenyl](1,2,4-oxadiazol-5-yl)}methoxy)-3-{4-[(methylsulfonyl)amino]phenyl}chromen-4-one]: 57%; for `N#Cc1cc(-c2coc3cc(OCc4noc(-c5cc(F)cc(C(F)(F)F)c5)n4)ccc3c2=O)ccc1F` [PT-9, 2-fluoro-5-[7-({5-[5-fluoro-3-(trifluoromethyl)phenyl](1,2,4-oxadiazol-3-yl)}methoxy)-4-oxochromen-3-yl]benzenecarbonitrile]: 24%; for `CCOC(=O)COc1ccc(-c2coc3cc(OCC(=O)OCC)ccc3c2=O)cc1` [PT-10, ethyl 2-(3-{4-[(ethoxycarbonyl)methoxy]phenyl}-4-oxochromen-7-yloxy)acetate]: 60%.
